In ChEMBL document CHEMBL4373728, “Primaquine derivatives: Modifications of the terminal amino group” (Eur J Med Chem, 2019):
Converted amounts (≈) assume the structure as drawn.

system: Plasmodium berghei; experiment: Antimalarial activity against Plasmodium berghei infected in human Huh7 cells after 1 hr by luciferase reporter gene assay; assay type: functional, organism-based; details: Huh-7, 1 h

| IC50 [µM] | Compound |
| --- | --- |
| 0.11 to 0.39 | COc1cc(NC(C)CCCNC(=O)/C=C/C(=O)Nc2ccc(C(F)(F)F)cc2)c2ncccc2c1 (centres undefined) |
| 0.11 to 0.39 | COc1cc(NC(C)CCCNC(=O)/C=C/C(=O)Nc2cccc(C(F)(F)F)c2)c2ncccc2c1 (centres undefined) |
| 0.11 to 0.39 | COc1cc(NC(C)CCCNC(=O)/C=C/C(=O)Nc2cccc(Cl)c2)c2ncccc2c1 (centres undefined) |
| 0.11 to 0.39 | COc1cc(NC(C)CCCNC(=O)/C=C/C(=O)Nc2ccc(Cl)cc2)c2ncccc2c1 (centres undefined) |

| Compound | IC50 [µM] |
| --- | --- |
| COc1cc(NC(C)CCCNC(=O)/C=C/C(=O)Nc2ccc(F)cc2)c2ncccc2c1 (centres undefined) | 0.11 to 0.39 |
| COc1cc(NC(C)CCCNC(=O)/C=C/C(=O)Nc2cccc(F)c2)c2ncccc2c1 (centres undefined) | 0.11 to 0.39 |
| COc1cc(NC(C)CCCN)c2ncccc2c1 (centres undefined) [PRIMAQUINE] | 8.4 |

system: Plasmodium falciparum; experiment: Antimalarial activity against erythrocytic stage of Plasmodium falciparum by HRP2 assay; assay type: functional, organism-based; details: not given

| IC50 [µM] | Compound |
| --- | --- |
| 7.74 to 18.4 | COc1cc(NC(C)CCCNC(=O)/C=C/C(=O)Nc2ccc(C(F)(F)F)cc2)c2ncccc2c1 (centres undefined) |
| 7.74 to 18.4 | COc1cc(NC(C)CCCNC(=O)/C=C/C(=O)Nc2cccc(C(F)(F)F)c2)c2ncccc2c1 (centres undefined) |
| 7.74 to 18.4 | COc1cc(NC(C)CCCNC(=O)/C=C/C(=O)Nc2cccc(Cl)c2)c2ncccc2c1 (centres undefined) |
| 7.74 to 18.4 | COc1cc(NC(C)CCCNC(=O)/C=C/C(=O)Nc2ccc(Cl)cc2)c2ncccc2c1 (centres undefined) |

| Compound | IC50 [µM] |
| --- | --- |
| COc1cc(NC(C)CCCNC(=O)/C=C/C(=O)Nc2ccc(F)cc2)c2ncccc2c1 (centres undefined) | 7.74 to 18.4 |
| COc1cc(NC(C)CCCNC(=O)/C=C/C(=O)Nc2cccc(F)c2)c2ncccc2c1 (centres undefined) | 7.74 to 18.4 |

system: Plasmodium falciparum; experiment: Antimalarial activity against chloroquine-sensitive Plasmodium falciparum 3D7 by HRP2 assay; assay type: functional, organism-based; details: not given

| IC50 [µM] | Compound |
| --- | --- |
| 7.74 to 18.4 | COc1cc(NC(C)CCCNC(=O)/C=C/C(=O)Nc2ccc(C(F)(F)F)cc2)c2ncccc2c1 (centres undefined) |
| 7.74 to 18.4 | COc1cc(NC(C)CCCNC(=O)/C=C/C(=O)Nc2cccc(C(F)(F)F)c2)c2ncccc2c1 (centres undefined) |
| 7.74 to 18.4 | COc1cc(NC(C)CCCNC(=O)/C=C/C(=O)Nc2cccc(Cl)c2)c2ncccc2c1 (centres undefined) |
| 7.74 to 18.4 | COc1cc(NC(C)CCCNC(=O)/C=C/C(=O)Nc2ccc(Cl)cc2)c2ncccc2c1 (centres undefined) |

| Compound | IC50 [µM] |
| --- | --- |
| COc1cc(NC(C)CCCNC(=O)/C=C/C(=O)Nc2ccc(F)cc2)c2ncccc2c1 (centres undefined) | 7.74 to 18.4 |
| COc1cc(NC(C)CCCNC(=O)/C=C/C(=O)Nc2cccc(F)c2)c2ncccc2c1 (centres undefined) | 7.74 to 18.4 |

system: Plasmodium falciparum; experiment: Antimalarial activity against Plasmodium falciparum Dd2 by HRP2 assay; assay type: functional, organism-based; details: not given

| IC50 [µM] | Compound |
| --- | --- |
| 7.74 to 18.4 | COc1cc(NC(C)CCCNC(=O)/C=C/C(=O)Nc2ccc(C(F)(F)F)cc2)c2ncccc2c1 (centres undefined) |
| 7.74 to 18.4 | COc1cc(NC(C)CCCNC(=O)/C=C/C(=O)Nc2cccc(C(F)(F)F)c2)c2ncccc2c1 (centres undefined) |
| 7.74 to 18.4 | COc1cc(NC(C)CCCNC(=O)/C=C/C(=O)Nc2cccc(Cl)c2)c2ncccc2c1 (centres undefined) |
| 7.74 to 18.4 | COc1cc(NC(C)CCCNC(=O)/C=C/C(=O)Nc2ccc(Cl)cc2)c2ncccc2c1 (centres undefined) |

| Compound | IC50 [µM] |
| --- | --- |
| COc1cc(NC(C)CCCNC(=O)/C=C/C(=O)Nc2ccc(F)cc2)c2ncccc2c1 (centres undefined) | 7.74 to 18.4 |
| COc1cc(NC(C)CCCNC(=O)/C=C/C(=O)Nc2cccc(F)c2)c2ncccc2c1 (centres undefined) | 7.74 to 18.4 |

system: Escherichia coli; experiment: Anti-biofilm activity against Escherichia coli; assay type: functional; details: not given

| Compound | MBEC [µg/mL] |
| --- | --- |
| COc1cc(NC(C)CCCNC(=O)NC(C(=O)NC(c2ccccc2)c2ccccc2)c2ccc(Cl)cc2)c2ncccc2c1 (centres undefined) | 6.25 to 50 |
| COc1cc(NC(C)CCCNC(=O)NC(C(=O)NC(c2ccccc2)c2ccc(Cl)cc2)c2ccccc2)c2ncccc2c1 (centres undefined) | 6.25 to 50 |

system: Staphylococcus aureus; experiment: Anti-biofilm activity against Staphylococcus aureus 630 after 24 hrs in aerobic condition by broth microdilution assay; assay type: functional; details: not given

| Compound | MBEC [µg/mL] |
| --- | --- |
| COc1cc(NC(C)CCCNC(=O)/C=C/C(=O)Nc2ccc(F)cc2)c2ncccc2c1 (centres undefined) | 6.3 |
| COc1cc(NC(C)CCCNC(=O)/C=C/C(=O)Nc2cccc(F)c2)c2ncccc2c1 (centres undefined) | 6.3 |

system: Staphylococcus aureus; experiment: Anti-biofilm activity against Staphylococcus aureus 3202 after 24 hrs in aerobic condition by broth microdilution assay; assay type: functional; details: not given

| Compound | MBEC [µg/mL] |
| --- | --- |
| COc1cc(NC(C)CCCNC(=O)/C=C/C(=O)Nc2ccc(F)cc2)c2ncccc2c1 (centres undefined) | 6.3 |
| COc1cc(NC(C)CCCNC(=O)/C=C/C(=O)Nc2cccc(F)c2)c2ncccc2c1 (centres undefined) | 6.3 |

system: Human coronavirus 229E; experiment: Antiviral activity against Human coronavirus 229E; assay type: functional, organism-based; details: not given

| Compound | EC50 [µM] |
| --- | --- |
| COc1cc(NC(C)CCCNC(=O)NNC(=O)/C(C)=C/c2ccccc2)c2ncccc2c1 (centres undefined) | 7.9 to 15 |
| COc1cc(NC(C)CCCNC(=O)NNC(=O)/C=C/c2ccc3c(c2)OCO3)c2ncccc2c1 (centres undefined) | 7.9 to 15 |

More lines, now with the values ahead:

| EC50 [µM] | Compound |
| --- | --- |
| 7.9 to 15 | COc1cc(NC(C)CCCNC(=O)NNC(=O)/C=C/c2cccc(C(F)(F)F)c2)c2ncccc2c1 (centres undefined) |
| 7.9 to 15 | COc1cc(NC(C)CCCNC(=O)NNC(=O)/C=C/c2cc(C(F)(F)F)cc(C(F)(F)F)c2)c2ncccc2c1 (centres undefined) |
| 7.9 to 15 | COc1cc(NC(C)CCCNC(=O)NNC(=O)/C=C/c2ccc(C(F)(F)F)cc2)c2ncccc2c1 (centres undefined) |

system: Mammalian orthoreovirus 1; experiment: Antiviral activity against Reovirus-1; assay type: functional, organism-based; details: not given

| EC50 [µM] | Compound |
| --- | --- |
| 3.1 to 5.5 | COc1cc(NC(C)CCCNC(=O)/C=C/C(=O)Nc2cccc(C(F)(F)F)c2)c2ncccc2c1 (centres undefined) |
| 3.1 to 5.5 | COc1cc(NC(C)CCCNC(=O)/C=C/C(=O)Nc2cccc(Cl)c2)c2ncccc2c1 (centres undefined) |

system: Sindbis virus; experiment: Antiviral activity against Sindbis virus; assay type: functional, organism-based; details: not given

| EC50 [µM] | Compound |
| --- | --- |
| 3.1 to 5.5 | COc1cc(NC(C)CCCNC(=O)/C=C/C(=O)Nc2cccc(C(F)(F)F)c2)c2ncccc2c1 (centres undefined) |
| 3.1 to 5.5 | COc1cc(NC(C)CCCNC(=O)/C=C/C(=O)Nc2cccc(Cl)c2)c2ncccc2c1 (centres undefined) |

system: Punta Toro virus; experiment: Antiviral activity against Punta Toro virus; assay type: functional, organism-based; details: not given

| EC50 [µM] | Compound |
| --- | --- |
| 3.1 to 5.5 | COc1cc(NC(C)CCCNC(=O)/C=C/C(=O)Nc2cccc(C(F)(F)F)c2)c2ncccc2c1 (centres undefined) |
| 3.1 to 5.5 | COc1cc(NC(C)CCCNC(=O)/C=C/C(=O)Nc2cccc(Cl)c2)c2ncccc2c1 (centres undefined) |

system: Coxsackievirus B4; experiment: Antiviral activity against Coxsackievirus B4; assay type: functional, organism-based; details: Enterovirus B

| EC50 [µM] | Compound |
| --- | --- |
| 3.1 | COc1cc(NC(C)CCCNC(=O)/C=C/C(=O)Nc2cccc(C(F)(F)F)c2)c2ncccc2c1 (centres undefined) |

system: Escherichia coli; experiment: Antimicrobial activity against Escherichia coli; assay type: functional; details: not given

| MIC [µg/mL] | Compound |
| --- | --- |
| 25 (≈ 39.3 µM) | COc1cc(NC(C)CCCNC(=O)NC(C(=O)NC(c2ccccc2)c2ccccc2)c2ccc(Cl)cc2)c2ncccc2c1 (centres undefined) |
| 25 (≈ 39.3 µM) | COc1cc(NC(C)CCCNC(=O)NC(C(=O)NC(c2ccccc2)c2ccc(Cl)cc2)c2ccccc2)c2ncccc2c1 (centres undefined) |

system: Pseudomonas aeruginosa; experiment: Antimicrobial activity against Pseudomonas aeruginosa; assay type: functional; details: not given

| MIC [µg/mL] | Compound |
| --- | --- |
| 25 (≈ 39.3 µM) | COc1cc(NC(C)CCCNC(=O)NC(C(=O)NC(c2ccccc2)c2ccccc2)c2ccc(Cl)cc2)c2ncccc2c1 (centres undefined) |
| 25 (≈ 39.3 µM) | COc1cc(NC(C)CCCNC(=O)NC(C(=O)NC(c2ccccc2)c2ccc(Cl)cc2)c2ccccc2)c2ncccc2c1 (centres undefined) |

system: Staphylococcus aureus; experiment: Antimicrobial activity against Staphylococcus aureus; assay type: functional; details: not given

| MIC [µg/mL] | Compound |
| --- | --- |
| 6.5 (≈ 10.2 µM) | COc1cc(NC(C)CCCNC(=O)NC(C(=O)NC(c2ccccc2)c2ccccc2)c2ccc(Cl)cc2)c2ncccc2c1 (centres undefined) |
| 6.5 (≈ 11.2 µM) | COc1cc(NC(C)CCCNC(=O)NC(CC(C)C)C(=O)NC(c2ccccc2)c2ccccc2)c2ncccc2c1 (centres undefined) |
